How the values were obtained:
[1] = molecular target: Human CB1R (Cannabanoid receptor 1) (Homo sapiens (Human), UniProt P21554); test: CB-1 in vitro cAMP assay (HTRF); assay type: cell-based; settings: mean where tested more than once
Excerpt: (§1) CB1 and CB2 receptors are Gi-coupled GPCR. Activation of CB1 and CB2 receptors results in a decrease in cAMP production. An inverse agonist of the CB1 or CB2 receptor results in the opposite effect, an increase of cAMP production. The principle of this assay is based on HTRF® technology (Homogeneous Time-Resolved Fluorescence). The method is a competitive immunoassay between native cAMP produced by cells and the cAMP labeled with the fluorophore d2. The tracer binding is quantified by a Mab anti-cAMP labeled with Eu3+TBP-NHS Cryptate (supplied as part of the assay kit). The specific signal (i.e. energy transfer) is inversely proportional to the concentration of cAMP in the standard or sample.
(§2) Human CB1R (Cannabanoid receptor 1) was stably transfected in HEK-293 cells (DiscoveRx, cat: 93-0200C1). Human CB2R (Cannabanoid receptor 2) was stably transfected in HEK-293 cells (DiscoveRx, cat: 93-0201C1). Cell cultures were maintained in media: DMEM (Invitrogen Cat#12430-054) supplemented with 10% HI FBS (Invitrogen Cat#16140-071), 1% L-glutamine (Invitrogen Cat#25030-081), 0.2 mg/ml Hygromycin B (Invitrogen Cat#10687-010), 600 μg/mL G418 (Invitrogen Cat#10131-035), and 1× Penn/Strep (Invitrogen 15140-122). After cell expansion, aliquots were cryo-stored in media containing 5% DMSO (Pierce Cat#20684).
(§3) One day prior to experiments media was warmed to 37° C. and the cryo-stored cells were thawed in a 37° C. water bath. The cells were then added to media (10× volume) and the mixture was centrifugated at 1000 RPM for 5 min. The supernate was removed and the cells were re-suspended in media. A sample of the cell suspension was evaluated on a Cedex XS automated cell counter (Innovatis Systems) to determine viable cells/ml. Additional media was added to the cells to achieve a final cell density of 4E5 cells/mL. The cells were then plated into 384 well PDL white solid bottom plates (Greiner, Cat#781945) at 20 μL per well using a Multidrop (Thermo Scientific). Cells were removed from Row P (location of cAMP standards). Two columns of cells were plated into a clear bottom 384 well PDL coated plate (Greiner, Cat#781944) to view confluence the day of the assay. The cell plates were lidded and stored for 15 minutes in a hood, then transferred to an incubator (37° C., 5% CO2, 95% humidity) overnight.
(§4) DMSO was added to all wells of 384 well V bottom polystyrene plate (Greiner, Cat#781280) except to columns 1 and 13, rows O and P and wells M13-M23 and N13-N23. Test compounds (60 μL, 10 mM) were added to Column 1 and 13 (A1 through N1 and A13 through L13). Test compounds were serially diluted 1/3 by transferring and mixing 20 μl sample with 40 μL DMSO.
(§5) DMSO (40 μL) was added to wells of 384 well V bottom polystyrene plate: O2 through O11, M14 through M23, N14 through N23, and O14 through O23. AM630 (also known as [6-iodo-2-methyl-1-[2-(4-morpholinyl)ethyl]-1H-indol-3-yl](4-methoxyphenyl)-methanone, Cayman Chemical, Cat#10006974) (60 μL, 10 mM) was added to O1; and 1-(2,4-dichlorophenyl)-7-[(4-fluorophenyl)methylene]-4,5,6,7-tetrahydro-N-1-piperidinyl-1H-indazole-3-carboxamide (60 μL, 10 mM) was added to N13. The control was serially diluted 1/3 by transferring and mixing 20 μl sample with 40 μL DMSO. This process resulted 11 doses per control, 10 mM to […].
(§6) Cells plated the day prior to the assay in clear bottom plates were viewed on an inverse microscope to ensure confluency in the range of 60-75%. […]

[2] = molecular target: Human CB2R (Cannabanoid receptor 2) (Homo sapiens (Human), UniProt P34972); test: CB-2 in vitro cAMP assay (HTRF); assay type: cell-based; settings: mean where tested more than once
Excerpt: as §1, §2, §3, §4, §5, §6

Human CB1R (Cannabanoid receptor 1), sequence (P21554 whole entry): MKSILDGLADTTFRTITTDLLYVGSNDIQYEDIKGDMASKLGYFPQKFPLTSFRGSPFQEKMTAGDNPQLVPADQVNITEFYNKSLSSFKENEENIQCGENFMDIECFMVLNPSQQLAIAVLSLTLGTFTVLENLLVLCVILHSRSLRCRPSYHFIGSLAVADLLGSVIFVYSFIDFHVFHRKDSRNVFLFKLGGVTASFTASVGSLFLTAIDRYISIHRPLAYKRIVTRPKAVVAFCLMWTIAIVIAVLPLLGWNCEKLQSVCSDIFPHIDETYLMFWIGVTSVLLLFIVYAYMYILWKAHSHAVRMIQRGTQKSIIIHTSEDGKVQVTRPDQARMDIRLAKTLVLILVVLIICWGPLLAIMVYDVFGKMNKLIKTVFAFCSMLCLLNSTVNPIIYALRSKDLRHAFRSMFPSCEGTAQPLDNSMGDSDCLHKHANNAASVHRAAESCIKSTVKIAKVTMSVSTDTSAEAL
Human CB2R (Cannabanoid receptor 2), sequence (P34972 whole entry): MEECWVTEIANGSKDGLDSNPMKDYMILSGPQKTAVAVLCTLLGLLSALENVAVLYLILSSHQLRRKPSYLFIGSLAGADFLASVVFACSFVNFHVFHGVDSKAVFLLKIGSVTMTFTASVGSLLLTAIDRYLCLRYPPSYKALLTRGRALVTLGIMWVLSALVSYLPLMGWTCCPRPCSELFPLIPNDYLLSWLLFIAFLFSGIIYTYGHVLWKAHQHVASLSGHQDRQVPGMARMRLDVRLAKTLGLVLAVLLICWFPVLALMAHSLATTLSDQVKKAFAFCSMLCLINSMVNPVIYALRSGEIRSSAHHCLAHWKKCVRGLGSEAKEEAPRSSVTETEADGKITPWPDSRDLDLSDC

Compound	EC50 [1]	EC50 [2]
N#Cc1ccc(S(=O)(=O)N2CCC(Nc3ncnc4ccc(C(c5ccc(Cl)cc5)c5ccc(Cl)cc5)cc34)CC2)cc1 [Compound #52, 4-((4-((6-(bis(4-chlorophenyl)methyl)quinazolin-4-yl)amino)piperidin-1-yl)sulfonyl)benzonitrile]	12 nM	> 10000 nM
FC(F)(F)c1ccc(Nc2ncnc3ccc(C(c4ccc(Cl)cc4)c4nccs4)cc23)cc1 (stereo not drawn) [Compound #144, 6-((4-chlorophenyl)(thiazol-2-yl)methyl)-N-(4-(trifluoromethyl)phenyl)quinazolin-4-amine]	163 nM	2750 nM
O=C(O)CCOCCOc1nc(NCc2cccc(C(F)(F)F)c2)c2cc(C(c3ccc(Cl)cc3)c3ccc(Cl)cc3)ccc2n1 [Compound #48, 3-(2-((6-(bis(4-chlorophenyl)methyl)-4-((3-(trifluoromethyl)benzyl)amino)quinazolin-2-yl)oxy)ethoxy)propanoic acid]	67 nM	806 nM
NC(=O)Cc1ccc(N2CCC(Nc3ncnc4ccc(C(c5ccc(Cl)cc5)c5ccc(Cl)cc5)cc34)CC2)cc1 [Compound #74, 2-(4-(4-((6-(bis(4-chlorophenyl)methyl)quinazolin-4-yl)amino)piperidin-1-yl)phenyl)acetamide]	82 nM	178 nM
O=S(=O)(N1CCC(Nc2nc(Cl)nc3ccc(C(c4ccc(Cl)cc4)c4ccc(Cl)cc4)cc23)CC1)C(F)(F)F [Compound 200]	9 nM	6500 nM
O=C(O)c1cccc(CCN2CCC(Nc3ncnc4ccc(C(c5ccc(Cl)cc5)c5ccc(Cl)cc5)cc34)CC2)c1 [Compound #13, 3-(2-(4-(6-(bis(4-chlorophenyl)methyl)quinazolin-4-ylamino)piperidin-1-yl)ethyl)benzoic acid]	1240 nM	3050 nM
O=S1(=O)CCN(CCNc2ncnc3ccc(C(c4ccc(Cl)cc4)c4ccc(Cl)cc4)cc23)CC1 [Compound #6, 4-(2-((6-(bis(4-chlorophenyl)methyl)quinazolin-4-yl)amino)ethyl)thiomorpholine 1,1-dioxide]	35 nM	455 nM
O=S(=O)(c1ccc(Nc2ncnc3ccc(C(c4ccc(Cl)cc4)c4nccs4)cc23)cc1)C(F)(F)F (stereo not drawn) [Compound #142, 6-((4-chlorophenyl)(thiazol-2-yl)methyl)-N-(4-((trifluoromethyl)sulfonyl)phenyl)quinazolin-4-amine]	574 nM	> 10000 nM
O=C(O)c1cccc(CN2CCC(Nc3ncnc4ccc(C(c5ccc(Cl)cc5)c5ccc(Cl)cc5)cc34)C2)c1 (stereo not drawn) [compound 17, 3-((3-(6-(bis(4-chlorophenyl)methyl)quinazolin-4-ylamino)pyrrolidin-1-yl)methyl)benzoic acid]	4000 nM	7640 nM
O=C(O)CC(=O)N1CCC(Nc2ncnc3ccc(C(c4ccc(Cl)cc4)c4ccc(Cl)cc4)cc23)CC1 [compound 88, 3-(4-(6-(bis(4-chlorophenyl)methyl)quinazolin-4-ylamino)piperidin-1-yl)-3-oxopropanoic acid]	799 nM	> 10000 nM
CCS(=O)(=O)N1CCC(Nc2ncnc3ccc(C(c4ccc(Cl)cc4)c4ccc(Cl)cc4)cc23)CC1 [compound 141, 6-(bis(4-chlorophenyl)methyl)-N-(1-(ethylsulfonyl)piperidin-4-yl) quinazolin-4-amine]	32 nM	5010 nM
NC(=O)CC(=O)N1CCC(Nc2ncnc3ccc(C(c4ccc(Cl)cc4)c4ccc(Cl)cc4)cc23)CC1 [compound 87, 3-(4-(6-(bis(4-chlorophenyl)methyl)quinazolin-4-ylamino)piperidin-1-yl)-3-oxopropanamide]	2920 nM	> 10000 nM
Oc1ccc(CN2CCC(Nc3ncnc4ccc(C(c5ccc(Cl)cc5)c5ccc(Cl)cc5)cc34)CC2)cc1 [compound 27, 4-((4-(6-(bis(4-chlorophenyl)methyl)quinazolin-4-ylamino)piperidin-1-yl)methyl)phenol]	120 nM	> 10000 nM
NC(=O)c1cccc(CNc2ncnc3ccc(C(c4ccc(Cl)cc4)c4ccc(Cl)cc4)cc23)c1 [Compound #57, 3-(((6-(bis(4-chlorophenyl)methyl)quinazolin-4-yl)amino)methyl)benzamide]	215 nM	4950 nM
CC(Nc1ncnc2ccc(C(c3ccc(Cl)cc3)c3ccc(Cl)cc3)cc12)c1cccc(C(F)(F)F)c1 (stereo not drawn) [compound 128, 6-(bis(4-chlorophenyl)methyl)-N-(1-(3-(trifluoromethyl)phenyl)ethyl)quinazolin-4-amine]	9 nM	10400 nM
O=C(O)c1cccc(S(=O)(=O)N2CCC(Nc3ncnc4ccc(C(c5ccc(Cl)cc5)c5ccc(Cl)cc5)cc34)CC2)c1 [compound 101, 3-(4-(6-(bis(4-chlorophenyl)methyl)quinazolin-4-ylamino)piperidin-1-ylsulfonyl)benzoic acid]	106 nM	3880 nM
OC1(c2ccccc2)CCC(Nc2ncnc3ccc(C(c4ccc(Cl)cc4)c4ccc(Cl)cc4)cc23)CC1 (stereo not drawn) [Compound #99, 4-((6-(bis(4-chlorophenyl)methyl)quinazolin-4-yl)amino)-1-phenylcyclohexanol]	1 nM	8490 nM
FC(F)(F)c1ccc(Nc2ncnc3ccc(C(c4ccc(Cl)cc4)c4ccc(Cl)cc4)cc23)cc1Cl [Compound #122, 6-(bis(4-chlorophenyl)methyl)-N-(3-chloro-4-(trifluoromethyl)phenyl)quinazolin-4-amine]	52 nM	> 10000 nM
COC(=O)c1ccc(C(=O)N2CCC(Nc3ncnc4ccc(C(c5ccc(Cl)cc5)c5ccc(Cl)cc5)cc34)CC2)cc1 [Compound #73, methyl 4-(4-((6-(bis(4-chlorophenyl)methyl)quinazolin-4-yl)amino)piperidine-1-carbonyl)benzoate]	14 nM	4430 nM
O=S(=O)(c1ccc(Nc2ncnc3ccc(C(c4ccc(Cl)cc4)c4ccc(Cl)cc4)cc23)cc1)C(F)(F)F [Compound #134, 6-(bis(4-chlorophenyl)methyl)-N-(4-((trifluoromethyl)sulfonyl)phenyl)quinazolin-4-amine]	194 nM	> 10000 nM
CCOC(=O)CC(=O)N1CCC(Nc2ncnc3ccc(C(c4ccc(Cl)cc4)c4ccc(Cl)cc4)cc23)CC1 [compound 89, ethyl 3-(4-(6-(bis(4-chlorophenyl)methyl)quinazolin-4-ylamino)piperidin-1-yl)-3-oxopropanoate]	25 nM	1800 nM
COC(=O)CS(=O)(=O)N1CCC(Nc2ncnc3ccc(C(c4ccc(Cl)cc4)c4ccc(Cl)cc4)cc23)CC1 [Compound #110, Methyl 2-((4-((6-(bis(4-chlorophenyl)methyl)quinazolin-4-yl)amino)piperidin-1-yl)sulfonyl)acetate]	41 nM	3220 nM
Clc1ccc(C(c2ccc(Cl)cc2)c2ccc3ncnc(NC4CCN(c5ccccn5)CC4)c3c2)cc1 [Compound #130, 6-(bis(4-chlorophenyl)methyl)-N-(1-(pyridin-2-yl)piperidin-4-yl)quinazolin-4-amine]	2 nM	154 nM
O=C(O)c1ccc(N2CCC(Nc3ncnc4ccc(C(c5ccc(Cl)cc5)c5ccc(Cl)cc5)cc34)CC2)cc1 [Compound #92, 4-(4-((6-(bis(4-chlorophenyl)methyl)quinazolin-4-yl)amino)piperidin-1-yl)benzoic acid]	695 nM	195 nM

From patent publication US9682955B2, “Quinazoline derivatives useful as CB-1 inverse agonists” (Janssen Pharmaceutica NV, priority 2014, dated 2017)
